Earlier results, collected in US20230088267A1, “Dual chamber electronic nicotine delivery system with puff duration control and timed lockout and just-in-time adaptive intervention to treat nicotine dependence in cigarette smokers” (Virginia Commonwealth University, priority 2021, published 2023).

CN1CCC[C@H]1c1cccnc1 [nicotine, L-nicotine]
pka of the second nitrogen atom, located in the aromatic pyridine moiety (pyridine nitrogen, protonated under acidic conditions): 3.10
pka of the nitrogen atom in the pyrrolidine moiety (pyrrolidine nitrogen, basic): 8.01
